Test results taken from paper PMC3944516, “Isolation and Characterization of Anti-Adenoviral Secondary Metabolites from Marine Actinobacteria” (Marine Drugs, 2014).
“Also recorded” adds a separate entry of the source.

Tests used:
[1] = XTT based cytotoxicity test on A549 cells; type: cell-based, human; conditions: human, A549 cells, 24 h, XTT, normalized against DMSO controls, two independent experiments; for viability at 24 h, 400 µM: read-out: % Viable Cells at 400 μM; for viability at 24 h, 800 µM: read-out: % Viable Cells at 800 μM
From the text: (§1) Consideration of cellular cytotoxicity is essential when identifying antiviral compounds. Compounds that negatively interfere with the proliferation or viability of host cells will be recorded as false positives when assayed for antiviral activity. […] The XTT test measures the ability of mitochondrial enzymes to reduce 2,3-bis-(2-methoxy-4-nitro-5-sulfophenyl)-2H-tetrazolium-5-carboxanilide to a colored formazan dye that is spectrophotometrically quantified. […] Strikingly, butenolide 4 with the non-functionalized side-chain affected the viability dramatically. At both 400 and 800 μM of 4 the percentage of viable cells was close to zero, whereas for butenolide 1–3 the cells were as viable as the DMSO control at the concentrations tested. […] To further elucidate this difference and determine whether the cytotoxicity was cell type specific, we performed a dose-response experiment and investigated the cytotoxicity on human diploid fibroblasts derived from foreskin (FSU). FSU cells are isolated from the dermis of juvenile foreskin and, unlike A549 cells, are not derived from carcinoma, but primary cells with a limited expected number of cell divisions. […] However, the butenolide 4 with a non-functionalized side-chain reduced the viability of A549 cells and FSU cells to almost zero at 400 and 800 μM. […] The reason for the steep concentration dependence on cytotoxicity for the butenolide 4 containing a non-functionalized side-chain is presently unknown, and the large difference in cytotoxic potential between 4 and the other analogs is noteworthy when considering the minor structural differences in their side-chains.
(§2) The potential cytotoxic effect of the compounds was determined with XTT-based Cell Proliferation Kit II (Roche Applied Science, Penzberg, Germany). This method is a colorimetric assay based on the cleavage of the tetrazolium salt XTT to a soluble formazan salt by viable cells. Approximately, 13,000 A549 cells were seeded per well in 96-well plates on the day before addition of compounds. The next day, the growth medium was removed from the wells and replaced with 100 μL of phenol-red free DMEM with 2% FBS containing compound. In parallel, an amount of DMSO corresponding to the same amount of test compound was added to the cells and the plate was incubated at 37 °C for 20 h. Subsequently, 50 μL of XTT solution was added per well and the plate was incubated at 37 °C for 4 h and finally the intensity of the formazan dye was measured by spectrophotometry at a wavelength of 490 nm.

HAdV type 5 [2] = assay: quantitative real-time PCR (qPCR) anti-adenoviral dose-response assay; type: cell-based, human adenovirus type 5 (strain F2853-5b) in A549 cells; conditions: for EC50: Human mastadenovirus C, A549 host cells, qPCR of viral genomes after 24 h, duplicates; for anti-adenoviral activity (in words): dose-response up to 0.4 mM, qPCR 24 h post infection (Figure 8B)
Experimental: In order to confirm the antiviral activity observed during the screening campaign (Figure 3) and determine the EC50 values of the analogs, we conducted a dose-response experiment by a standardized quantitative real-time PCR (qPCR) assay (Figure 5). In this assay, the number of adenoviral genomes is assessed in relationship to the number of cells and the replication of HAdV type 5 on A549 host cells was assessed.
Figure 5 Dose-response study of the identified compounds on HAdV type 5. Each concentration point was run in duplicate and qPCR-analysis performed after 24 h. The amount of HAdV type 5 genomes in each treated sample was compared to infected but non-treated samples to obtain the inhibition of the percentage of control (y-axis). See the experimental section for details.
The quantitative Real Time PCR (qPCR) assay was performed as previously described. Briefly, A549 cells in 24 well plates (Nunc™ #142475) were infected with HAdV type 5 (1 pg per cell) and incubated with compound for 24 h. Thereafter, cellular and viral DNA was prepared using a QIAamp DNA blood minikit (Qiagen, Solna, Sweden) and quantitative real-time PCR was used to detect newly synthesized viral DNA and the inhibitory effect of the compounds. The principle of quantitative real-time PCR and the design of primers and probes for analysis of various HAdV types representing different adenovirus species have previously been described. Quantitative real-time PCR was carried out using a primer pair and a FAM-labeled probe detecting and amplifying the viral hexon gene. The amount of detected viral hexon DNA was normalized to the cellular RNaseP gene. Real-time PCR was performed in an ABI Prism 7900HT sequence detector and analyzed with Sequence Detector software version 2.4 (Applied Biosystems®, Life Technologies, Grand Island, NY, USA).
Determination of the EC50 values was performed with non-linear regression analysis with a variable slope using GraphPad Prism software version 6.0c (GraphPad Software, San Diego, CA, USA).

A549 cells = assay: XTT based cytotoxicity test on A549 cells; type: cell-based, human; conditions: for concentration above which the viability of the cells is significantly reduced: A549 cells, XTT (Figure 8C)
From the text: as §1, §2

[3] = system: FSU cells (human diploid fibroblasts derived from foreskin); assay: XTT based cytotoxicity dose-response on FSU cells; type: cell-based; conditions: 24 h
From the text: as §1
Figure 6 The cytotoxicity profile of butenolide ketone 3 and butenolide 4 with a non-functionalized side chain, on two cell lines, A549 cells and FSU cells, analyzed after 24 h. See experimental section for details.
as §2

[4] = system: HAdV 5 virions binding to A549 cells; assay: binding assay with 35S-labelled HAdV 5 virions; type: cell-based, human adenovirus type 5 in A549 cells; conditions: A549 cells pre-treated with 200 μM for 1.5 h, compared to the control
Experimental: (§3) Figure 7 Characterization of the antiviral activity of the butenolide ketone 3. The antiviral activity of the compounds was obtained by comparing the amount of HAdV type 5 genomes per cell to non-treated but infected control samples (y-axis). (A) Time-of-addition assay where 200 μM of butenolide ketone 3 was added at different time points in comparison to the addition of HAdV 5 at time 0 h. Samples were analyzed 24 h after the infection (+24 h) with qPCR; (B) Binding assay with ^35S-labelled HAdV 5 virions, with 200 μM compound 3 pretreated A549 cells for 1.5 h prior time-of-infection (TOI) and no pretreatment; (C) Virucidal assay where HAdV 5 virions were pretreated with 200 μM of butenolide ketone 3 prior addition to A549 cells and analyzed after 24 h.
This was primarily to investigate in which stage of the viral infectious cycle that the butenolide ketone 3 inhibited and consequently to reduce the number of possible drug-targets for further mode-of-action analysis. […] Simultaneous addition of 200 μM of 3 and virus (0 h) reduced the viral replication to below 20%, which is consistent with Figure 5. […]
^35S labelling of HAdV 5 was performed as previously described as well as the binding experiment. […] The cell-associated radioactivity was measured using a liquid scintillation counter (Wallac 1409, Perkin-Elmer, Waltham, MA, USA).

HAdV 5 virions = assay: virucidal assay; type: cell-based, human adenovirus type 5 in A549 cells; conditions: virions incubated with 200 μM for 2 h before infection, qPCR after 24 h
Experimental: as §3
This was primarily to investigate in which stage of the viral infectious cycle that the butenolide ketone 3 inhibited and consequently to reduce the number of possible drug-targets for further mode-of-action analysis. […]
The HAdV type 5 stock was diluted in DMEM (Sigma-Aldrich, St. Louis, MO, USA) with 2% FBS (Gibco®, Life Technologies, Grand Island, NY, USA) to the appropriate concentration to be added per well. […] In parallel, an identical mixture with no incubation time was added to wells as a control and the antiviral activity was analyzed 24 h post infection with qPCR assay.

HAdV type 5 [5] = assay: time-of-addition assay (qPCR); type: cell-based, human adenovirus type 5 in A549 cells
Experimental: as §3, with “24 h. […]” for “24 h.”
The quantitative Real Time PCR (qPCR) assay was performed as previously described. […] Thereafter, cellular and viral DNA was prepared using a QIAamp DNA blood minikit (Qiagen, Solna, Sweden) and quantitative real-time PCR was used to detect newly synthesized viral DNA and the inhibitory effect of the compounds. The principle of quantitative real-time PCR and the design of primers and probes for analysis of various HAdV types representing different adenovirus species have previously been described. Quantitative real-time PCR was carried out using a primer pair and a FAM-labeled probe detecting and amplifying the viral hexon gene. […]

SMILES	viability at 24 h, 400 µM [1] [%]	viability at 24 h, 800 µM [1] [%]	EC50 (HAdV type 5 [2]) [µM]	concentration above which the viability of the cells is significantly reduced (A549 cells; 24 h)	anti-adenoviral activity (in words) (HAdV type 5 [2])	further results
C[C@H](O)[C@H](C)CCCCC[C@H]1C=CC(=O)O1 [Compound 1a]	98 ± 6	96 ± 4	113			
CCC(C)(O)CCCCC[C@H]1C=CC(=O)O1 (some centres unmarked) [Compound 2]	106 ± 7	100 ± 3	183			
CC[C@H](C)CCCCC[C@H]1CCC(=O)O1 [Compound 6]				above 0.4 mM	eliminated the antiviral activity	
CCC(C)CCCCCC1C=CC(=O)O1 (centres unmarked) [Compound 4]	3 ± 1	3 ± 1	90	above 0.2 mM		viability of FSU cells (in words) ([3]; 100 μM, XTT (Figure 6)): in line with untreated DMSO control; cytotoxicity on FSU cells (in words) ([3]; 200 μM, XTT (Figure 6)): toxicity was strongly decreased; viability of FSU cells (in words) ([3]; 400 and 800 μM, XTT): almost zero; viability of A549 cells (in words) (A549 cells; 100 μM, 24 h, XTT (Figure 6)): in line with untreated DMSO control; cytotoxicity on A549 cells (in words) (A549 cells; 200 μM, 24 h, XTT (Figure 6)): toxicity was strongly decreased; viability of A549 cells (in words) (A549 cells; 400 and 800 μM, 24 h, XTT): close to zero; concentration showing cytotoxicity relative to EC50 (A549 cells; cytotoxic concentration compared with the EC50 on HAdV type 5): approximately three times its EC50 value
CC(=O)[C@H](C)CCCCC[C@H]1C=CC(=O)O1 [Compound 3]	102 ± 5	101 ± 3	91			binding of the virus to the cells (in words) [4]: did not reduce the binding of the virus to the cells; virucidal activity (in words) (HAdV 5 virions): did not differ between the pretreated and non-pretreated virions; cytotoxicity at the highest concentration (in words) ([3]; 2 mM, XTT (Figure 6)): no prominent cytotoxicity; also recorded: did not affect the viability of FSU cells to a great extent; viral replication, % of non-treated infected control (HAdV type 5 [5]; 200 μM added simultaneously with virus (0 h), qPCR 24 h after infection): below 20%; effect on viral infection (in words) (HAdV type 5 [5]; cells pre-incubated with 200 μM for four hours prior to the addition of virus, qPCR at 24 h): completely blocked the viral infection; cytotoxicity (in words) (A549 cells; XTT, concentrations tested): no cytotoxicity
CC(=O)[C@H](C)CCCCC[C@H]1CCC(=O)O1 [Compound 5]					eliminated the antiviral activity	
